The results in this text go back to US8071810B2, “C5a receptor antagonists” (Jerini AG, priority 2005, dated 2011).

For the first test, the target named is T1, human C5a receptor (CD88) (Homo sapiens, UniProt P21730).
T1 construct: expressed in transfected cells; host or cells: rat basophilic leukemia (RBL) cells, stably transfected
T1 sequence (P21730 1-350): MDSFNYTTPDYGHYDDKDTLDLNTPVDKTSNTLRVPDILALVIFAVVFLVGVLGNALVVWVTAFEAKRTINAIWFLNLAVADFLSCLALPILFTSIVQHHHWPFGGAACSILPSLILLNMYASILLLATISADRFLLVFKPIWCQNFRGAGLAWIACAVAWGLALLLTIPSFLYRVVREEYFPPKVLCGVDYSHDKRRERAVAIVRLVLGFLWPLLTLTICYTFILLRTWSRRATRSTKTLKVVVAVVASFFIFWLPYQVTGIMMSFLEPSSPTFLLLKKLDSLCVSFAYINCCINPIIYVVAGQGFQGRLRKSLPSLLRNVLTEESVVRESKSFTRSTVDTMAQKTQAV
Description: C5a induced enzyme (glucosaminidase) release assay in RBL cells expressing the human C5a receptor (Example 28). Conditions: RBL cells with human C5aR; read-out: IC50 for the inhibition of C5a induced enzyme release. The class given is cell-based. Here is the method: Basophile leukemia cells from rats (RBL), which express the human C5a receptor (CD88), are cultivated in DMEM with 10% fetal calf serum, 100 U/ml penicillin, 100 μg/ml streptomycin and 2 mM glutamin (all constituents are from Biochrome, Berlin) at 37° C. and with 10% CO2 until a confluent layer is obtained. All following details refer to a tissue culture flask with 75 cm^2 surface. The used up medium is removed. The cells are washed with 10 ml PBS (Dulbecco's PBS, Biochrome) and then covered with 3 ml cell dissociation solution (CDS, Sigma). The cells are incubated for 1 minute at room temperature. Then the CDS is removed and the cells are incubated for further 10-15 minutes at 37° C. to detach the cells completely from the flask. 20 μl solution of the compound to be testet are used in the assay. […] The dilution series are prepared in ⅓ or ½ steps. […] The cells are counted and centrifuged (200 g, 10 min). The cell pellet is taken up with pre-heated HAG-CM, and the cell density is adjusted to 2×10^6 Zellen/ml. The cells are incubated for 5 minutes at 37° C. 2.7 μl of a cytochalasin B solution (1000 μg/ml in DMSO, Sigma) are added per ml cell suspension. The Zellen are incubated for another 3 min at 37° C. Then, 75 μl of the cell suspension are added to the 20 μl solution containing the compounds to be tested. […] The cells are again incubated for 10 minutes at 37° C. […] After this the plates are put on ice and centrifuged for 3 minutes at 1200×g and 4° C. […] The plate is incubated for 1 hour at 37° C. […] The IC50 value is determined by solving the four parameter equation y=((A−D)/(1+(x/C)^B))+D.
As to `CCc1ccc(Cl)c(CC)c1NC(=O)N(Cc1ccc(OC)cc1)c1ccc(C(C)C)cc1` [compound 24, 3-(3-Chlor-2,6-diethyl-phenyl)-1-(4-isopropyl-phenyl)-1-(4-methoxy-benzyl)-urea], the half-inhibitory concentration (IC50) is 1050 nM.

Still in this test, the particulars now being: inhibition of C5a induced enzyme release, RBL cells with human C5aR; read-out: Activity-range (antagonistic activity, IC50 enzyme release).
On to `CCc1ccc(N)c(CC)c1NC(=O)N(Cc1ccc(OC)cc1F)c1ccc(C(C)C)cc1` [compound 59, 3-(3-amino-2,6-diethyl-phenyl)-1-(2-fluoro-4-methoxy-benzyl)-1-(4-isopropyl-phenyl)-urea], for which the IC50 is 200 to 5000 nM.

For `CCc1c(N)cc(Cl)c(CC)c1NC(=O)N(c1ccc(C(C)C)cc1)[C@@H](C)c1ccc(Cl)cc1` [compound 78, (S)-3-(3-amino-5-chloro-2,6-diethyl-phenyl)-1-[1-(4-chlor-phenyl)-ethyl]-1-(4-isopropyl-phenyl)-urea], the IC50 is below 60 nM.

Consider `CCc1c(Cl)cc(NCC(=O)OC)c(CC)c1NC(=O)N(Cc1ccc(OC)cc1)c1ccc(C(C)C)cc1` [compound 55, {5-chloro-2,4-diethyl-3-[3-(4-isopropyl-phenyl)-3-(4-methoxy-benzyl)-ureido]-phenylamino} acetic acid methyl-ester], for which the half-inhibitory concentration (IC50) was 200 to 5000 nM.

`CCc1c(N)cc(Cl)c(CC)c1NC(=O)N(CCc1ccc(C)cc1)c1ccc(C(C)C)cc1` [compound 52, 3-(3-amino-5-chloro-2,6-diethyl-phenyl)-1-(4-isopropyl-phenyl)-1-(2-p-tolyl-ethyl)-urea]: the concentration for half-maximal inhibition (IC50) lay in the range of 200 to 5000 nM.

For `CCc1c(N)cc(Cl)c(CC)c1NC(=O)N(Cc1ccc(OC(F)(F)F)cc1)c1ccc(C(C)C)cc1` [compound 33, 3-(3-amino-5-chloro-2,6-diethyl-phenyl)-1-(4-isopropyl-phenyl)-1-(4-trifluoromethoxy-benzyl)-urea], the 50% inhibitory concentration (IC50) is 200 to 5000 nM.

As to `CCc1c(N)cc(Cl)c(CC)c1NC(=O)N(Cc1ccc(C)nc1)c1ccc(OC)cc1F` [compound 124, 3-(3-amino-5-chloro-2,6-diethyl-phenyl)-1-(2-fluoro-4-methoxy-phenyl)-1-(6-methyl-pyridin-3-ylmethyl)-urea], the IC50 lay in the range of 200 to 5000 nM.

Turning to `CCc1c(Cl)cc(N=O)c(CC)c1NC(=O)N(c1ccc(NC)cc1)[C@@H](C)c1ccc(Cl)cc1` [compound 133, (S)-3-(3-chloro-2,6-diethyl-5-nitroso-phenyl)-1-[1-(4-chloro-phenyl)-ethyl]-1-(4-methylamino-phenyl)-urea], the half-inhibitory concentration (IC50) was below 60 nM.

Regarding `CCc1ccc(N(C(=O)Nc2c(CC)c(N)cc(Cl)c2CC)C(C[N+](=O)[O-])c2ccccc2)cc1` (stereo not shown) [compound 112, 3-(3-amino-5-chloro-2,6-diethyl-phenyl)-1-(4-ethyl-phenyl)-1-(2-nitro-1-phenyl-ethyl)-urea], the IC50 lay in the range of 200 to 5000 nM.

`CCc1ccc(N(Cc2ccc(Br)cc2)C(=O)Nc2c(CC)c(N)cc(Cl)c2CC)cc1` [compound 99, 3-(3-amino-5-chloro-2,6-diethyl-phenyl)-1-(4-bromo-benzyl)-1-(4-ethyl-phenyl)-urea]: the half-maximal inhibitory concentration (IC50) was below 60 nM.

With `CCc1c(N)cc(Cl)c(CC)c1NC(=O)N(Cc1ccc(Cl)cc1)c1ccc(SC(F)(F)F)cc1` [compound 93, 3-(3-amino-5-chloro-2,6-diethyl-phenyl)-1-(4-chloro-benzyl)-1-(4-trifluoromethylsulfanyl-phenyl)-urea], the half-maximal inhibitory concentration (IC50) lay within 200 to 5000 nM.

Turning to `CCc1ccc(N)c(CC)c1NC(=O)N(Cc1ccc(C)cc1)c1ccc(C(C)C)cc1` [compound 39, 3-(3-amino-2,6-diethyl-phenyl)-1-(4-isopropyl-phenyl)-1-(4-methyl-benzyl)-urea], the half-inhibitory concentration (IC50) was in the range of 200 to 5000 nM.

Take `CCc1ccc(N)c(CC)c1NC(=O)N(Cc1ccc2c(c1)CCO2)c1ccc(C(C)C)cc1` [compound 67, 3-(3-amino-2,6-diethyl-phenyl)-1-(2,3-dihydro-benzofuran-5-ylmethyl)-1-(4-isopropyl-phenyl)-urea]: the IC50 lay in the range of 200 to 5000 nM.
